From patent US12195451B2 (priority 2015, dated 2025)

What was measured:
[1] = tested on: MVA-eGFP; format: cell-based, modified vaccine ankara (MVA); details: human renal carcinoma (786-0) cells; infected after 4 hours, MOI 0.01; 48 h and 64 h after infection
[2] = tested on: adenovirus expressing firefly luciferase; assay: Adenovirus transduction in A549 cancer cells (MOI 0.1, luciferase luminescence); format: cell-based, Adenovirus Serotype 5; details: pre-treated 2 hours at 21 uM to 120 or 160 uM, 40 hours post-infection
[3] = tested on: A/FM1 (H1N1); design: species or system Influenza A H1N1; details: in vivo
[4] = tested on: adenovirus expressing firefly luciferase; assay: Adenovirus transduction in normal mouse muscle tissue cores; format: cell-based, Adenovirus Serotype 5; details: 10, 20 or 40 uM for 4 hours, 1×10^7 pfu/well, 36 hours post-infection
[5] = tested on: adenovirus expressing firefly luciferase; assay: Adenovirus transduction in normal mouse brain tissue cores; format: cell-based, Adenovirus Serotype 5; details: 10, 20 or 40 uM for 4 hours, 1×10^7 pfu/well, 36 hours post-infection
[6] = tested on: virus-induced cellular genes; details: gene expression microarrays; cited from earlier work
[7] = tested on: IFN-responsive promoter; details: cited from earlier work
[8] = tested on: IFN-responsive U251 human glioma cells; details: cited from earlier work
[9] = tested on: adeno-associated virus expressing firefly luciferase; format: cell-based, AAV serotype 6
[10] = tested on: VSV-Maraba-MG1-eGFP virus; format: cell-based, Maraba MG-1
[11] = tested on: ICP0-null HSV-N212eGFP; format: cell-based, Herpes Simplex Virus type-1 (HSV-1)
[12] = tested on: adenovirus expressing firefly luciferase; format: cell-based, Adenovirus Serotype 5
[13] = tested on: Salmonella typhimurium strains TA98 and TA100
[14] = tested on: Influenza H1N1 A/Puerto Rico/8/34 (PR8); format: cell-based

Compound | MVA vaccine strain infection of cells (eGFP fluorescence) [1] | Adenovirus transduction in cancer cells (fold increase luciferase luminescence vs adenovirus alone) [2] | Adenovirus transduction in normal muscle tissue [4] | Adenovirus transduction in normal brain tissue [5] | adeno-associated virus vector production (luciferase activity, fold increase vs untreated) [9] | HSV-1 replication (eGFP fluorescence and HSV titers) [11] | adenovirus vector production (luciferase activity, fold increase vs untreated) [12] | also measured
O=C1C(Cl)=C(Cl)C(O)N1CCc1ccccc1 (stereo not drawn) [MD03009, 3,4-dichloro-5-hydroxy-1-phenethyl-1H-pyrrol-2(5H)-one] | can be enhanced | enhance Adenovirus transduction |  |  |  |  |  | 
O=C1C(Cl)=C(Cl)C(O)N1CCN1CCOCC1 (stereo not drawn) [MD03011, 3,4-dichloro-5-hydroxy-1-(2-morpholinoethyl)-1H-pyrrol-2(5H)-one] | can be enhanced | enhance Adenovirus transduction | enhance adenovirus transduction | enhance Adenovirus transduction |  |  |  | A/FM1 (H1N1) production in ovo (plaque assay titer, HA titer by HPLC AUC) [3]: enhances A/FM1 (H1N1) production
O=C1OC(c2ccccc2)C(Cl)=C1Cl (stereo not drawn) [VSe1, 3,4-dichloro-5-phenyl-2,5-dihydrofuran-2-one, reference compound] | can be enhanced | enhance Adenovirus transduction |  |  | enhance the production | enhance Herpes Simplex Virus type-1 (HSV-1) replication | enhance the production | virus-induced cellular genes whose transcription is repressed [6]: > 95%; IFN-induced transcriptional activity [7]: inhibit IFN-induced transcriptional activity; IFN-mediated protection of cells to VSVΔ51 infection [8]: suppress IFN-mediated protection; replication / spread of oncolytic virus MG1 (eGFP expression) [10]: enhance the replication
COS(C)(=O)=O [MMS, methyl methanesulfonate, reference compound] |  |  |  |  |  |  |  | reversion rate (number of revertants) [13]: high number of revertants
COc1ccccc1CN1C(=O)C(Cl)=C(Cl)C1O (stereo not drawn) [CM01025, 3,4-Dichloro-5-hydroxy-1-(2-methoxy-benzyl)-1,5-dihydro-pyrrol-2-one] |  |  |  |  |  | enhance Herpes Simplex Virus type-1 (HSV-1) replication |  | 
O=C1C(Cl)=C(Cl)C(O)N1Cc1ccccc1 (stereo not drawn) [MD01145, α,β-dichloro-γ-hydroxy-N-benzyl-crotonic lactam] | can be enhanced |  | enhance adenovirus transduction | enhance Adenovirus transduction | enhance the production | enhance Herpes Simplex Virus type-1 (HSV-1) replication | enhance the production | dose-dependent increase in the number of revertants [13]: does not produce a dose-dependent increase; mutagenic potential [13]: not mutagenic
O=c1[nH]ncc(Cl)c1Cl [MD02026, 4,5-Dichloro-2H-pyridazin-3-one] | can be enhanced |  | enhance adenovirus transduction | enhance Adenovirus transduction | enhance the production |  | enhance the production | 
CN1C(=O)C(Cl)=C(Cl)C1O (stereo not drawn) [CM01031, 3,4-Dichloro-5-hydroxy-1-methyl-1,5-dihydro-pyrrol-2-one] |  |  |  |  |  |  |  | PR8 titers, MDCK (NBL-2) cells [14]: Enhancement of PR8; PR8 titers, MDCK.2 cells [14]: Enhancement of PR8
C#CCN1C(=O)C(Cl)=C(Cl)C1O (stereo not drawn) [MD01151, 3,4-Dichloro-5-hydroxy-1-prop-2-ynyl-1,5-dihydro-pyrrol-2-one] | can be enhanced | enhance Adenovirus transduction |  |  |  | enhance Herpes Simplex Virus type-1 (HSV-1) replication |  | 
